Here are results for seven compounds from US8703424B2, “Predicting human developmental toxicity of pharmaceuticals using human stem-like cells and metabolomics” (Stemina Biomarker Discovery, Inc., priority 2010, dated 2014).

The subject of data set [1] is WA09 hESCs. Briefly: Random forest prediction of teratogenicity from metabolomics of spent media of dosed hESCs. The data set is classed as cell-based, human. The conditions noted are these: for Predicted teratogenicity (random forest statistical model): blind study, model trained on TS1, 142 mass features, circulating dose. The protocol: WA09 hESCs, obtained from WiCell Research Institute (NIH National Stem Cell Bank, Madison, Wis.) were cultured in 6-well plates on Matrigel (BD Biosciences, San Jose, Calif.), in mTeSR1 medium (Stem Cell Technologies, Vancouver, BC) incubated at 37° C. under 5% CO2 in a Thermo Electron Form a Series II Water Jacket CO2 Incubator. hESCs were passaged every three or four days at a 1:3 or 1:6 seeding density for routine culture conditions. For dosing experiments, hESCs were passaged at a low density of 1:10 or 1:12 so that they would not require passaging during the […] dosing protocol. To passage hES cells, the StemPro® EZPassage™ disposable stem cell passaging tool (Invitrogen, Carlsbad, Calif.) was used to detach the cells from the wells. Detached cells were removed with a pipette and distributed to new Matrigel plates.
(§1) These medium controls provided baseline mass spectral data.
(§2) The 2.5 mL of spent media per well from Example 1 was added to 1.67 mL acetonitrile to make a 40% acetonitrile solution. The acetonitrile acts to “quench” the spent media sample, slowing or halting many metabolic processes and aiding in precipitation of cellular proteins. Samples were either stored at −80° C. for later analysis, or for immediate analysis, 250 μL of the quenched solution was mixed with 250 μL of water, to a final concentration of 20% acetonitrile, then added to a 3 kDa molecular weight cut-off filter spin column (Microcon YM-3 Centrifugal Filter, Millipore, Billerica, Mass.). Each sample was then centrifuged in an IEC CL31R Multispeed Centrifuge (Thermo Scientific, Waltham, Mass.) at 13,000×g at 4° C. for 200 minutes. Following centrifugation, the flow-through was saved then dried for several hours in a Savant High Capacity Speedvac Plus Concentrator. The concentrated sample was then dissolved in 50 μL of 0.1% formic acid prior to LC-MS analysis.
(§3) 5 μl of each sample was injected.
(§4) Following LC-MS, chromatograms were inspected for reproducibility. LC-MS runs with total ion counts that vary by more than 25% were repeated to ensure that samples could be accurately compared. These runs were then used to create mass features that correspond to molecules detected across the different LC-MS runs. Mass features were extracted from the LC-MS data using MassHunter Qualitative Analysis software (Agilent Technologies). The following criteria were used as general guidelines, however some flexibility and optimization was needed. m/z values within the range of 75-1500, with a charge of +1 or −1, and a centroid height greater than 1000 were used to generate “mass features.” The mass peaks that pass these criteria were used to fit isotope and adduct (Na^+, K^+, and NH4^+) patterns corresponding to individual molecules, and to establish the abundance of each mass feature. The abundance is calculated by MassHunter software as the sum of the isotopic and adduct peaks that correspond to a single molecular feature. After data deconvolution, mass features showing at least two ions (e.g. (M^+H)^+ and (M^+H)^++1 or (M^+H)^+ and (M^+Na)^+) and an abundance value greater than 50000 for positive-ion mode data and 10000 in negative-ion mode data were included in the data set used for binning of the mass features.
Following feature selection by MassHunter, the data was further preprocessed by MassProfiler (Agilent) software which aligns mass features across multiple LC-MS data files. Mass features were generated for data from each drug treatment experiment (dosed and control) using the default alignment settings in MassProfiler with the requirement that a feature be present in at least 80% of the samples in one treatment. The mass feature datasets for each drug treatment experiment were further processed in a global manner using custom analysis scripts executed in the R statistical software environment. […]

The subject of data set [2] is WA09 human embryonic stem (hES) cells. Briefly: PLS-DA prediction of teratogenicity from secretome of treated hES cells (Example 9). The conditions noted are these: DevTox pharmaceutical.
From the text: (§5) These included 11 known teratogens and 11 known non-teratogens. The current model is based on the mean fold change (treatment versus its associated intra-experimental control) of 15 metabolites common among the secretome of hES cells treated with pharmaceutical agents and unknown chemical compounds.
Data set [3] concerns WA09 hESCs. Nature of the data set: LC-MS metabolomics: abundance changes of metabolites in hESCs dosed at circulating dose. It counts as cell-based, human. The conditions noted are these: drug-treated vs control. How it is done: as §1, §2, §3, §4
The media represents a major factor in the experimental system, in that it contributes many peaks to mass spectra. This can be accounted for in a data dependent manner to select for mass feature bins, which are present at significant levels above the media. Mass feature bins present solely in the presence of cells (not detected in media) or with average abundance levels different than uncultured media were considered to be secreted, excreted, consumed, or identified metabolites.
The exact mass of the metabolite must be within 10 ppm of the known mass of the compound. 2) The retention time of the metabolite detected in the cell media must be within + or −30 seconds of a reference standard on which MS data had been acquired under the same conditions. The reference standards were dissolved in mTeSR media and prepared in exactly the same manner (described above) as the samples from the cells, including the addition of acetonitrile, Centricon centrifugal filtration, drying then dissolution in formic acid prior to LC-MS analysis. 3) The MS-MS fragmentation spectra of the metabolite detected in the cell media must be a reasonable match with that of the reference standard, including abundances and m/z values of the fragment ions. If published MS-MS spectra are available, the MS-MS spectra must also be a reasonable match.

In another data set the test system is hESCs. Briefly: Arginine / ADMA fold change ratio (integrated EICs) in dosed hESCs vs controls. The conditions noted are these: for Arg fold change/ADMA fold change: EIC areas, controls vs. dosed. How it is done:
All tested chemicals were purchased from Sigma-Aldrich (St. Louis, Mo.). Cells were dosed with drugs at a concentration equivalent to their published serum circulating therapeutic dosages. Dosing was performed on hESCs in 6-well plates in triplicate, i.e. three wells per plate. The plates were dosed in triplicate, so there were a total of nine dosed wells. In parallel, there were nine “control” wells, in which hESCs were cultured with mTeSR1 containing no drug, and three wells containing Matrigel with mTeSR1 medium without hESCs that served as medium controls. Lastly, three wells of dosed medium controls were prepared, containing Matrigel, mTeSR1 and drug, but no hESCs (FIG. 1). These medium controls provided baseline mass spectral data. On the first day of dosage, the determined concentration of drug was dissolved in mTeSR1, and then 2.5 mL of this solution was added to each dosed well of hESCs. Each day, for four days, the medium was removed and new dosed medium was added. On the fourth day, the medium was removed and added to acetonitrile to make a 40% acetonitrile solution, as outlined in the Sample Preparation section below.
Mass spectrometry was performed using an Agilent QTOF LC/MS system consisting of a G6520AA QTOF high resolution mass spectrometer capable of exact mass MS and MS/MS. In order to facilitate separation of small molecules with a wide range of polarity and to allow increased retention of hydrophilic species, Hydrophilic Interaction Liquid Chromatography (Alpert 1990) was employed. Each sample was run for 30 minutes with the gradient shown in Table 3 at a flow rate of 0.5 mL/min, using 0.1% formic acid in water (Solvent A) and 0.1% formic acid in acetonitrile (Solvent B). Electrospray ionization was employed using a dual ESI source, with an Agilent isocratic pump continuously delivering an internal mass reference solution into the source at approx. 0.01 mL/min. The mass range of the instrument was set to 100-1700 Da. A Phenomenex Luna HILIC column with dimensions 3×100 mm 3 μm particle size was used and maintained at 30° C. 5 μl of each sample was injected. Data acquisition was performed with Agilent MassHunter using high-resolution exact mass conditions.
Valproate is known to cause neural tube defects (DiLiberti et al. 1984) while nitric oxide synthase activity is essential for neural tube closure (Nachmany et al. 2006).

Data set [4] deals with WA09 human embryonic stem (hES) cells.
From the text: as §5
For data set [5] the following is noted: blinded drugs; cited from earlier work.
For the next data set, the system named is mES cells. The conditions noted are these: Nieden et al. 2001; cited from earlier work.
Where [6] appears, read: high dose (H = 10x circulating dose).
The mark [7] stands for this setting: low dose (L = 0.1x circulating dose).

Like-named read-outs stand apart in the source and are kept apart here.

For `NC(=O)N1c2ccccc2C=Cc2ccccc21` [Carbamazepine], the “Predicted teratogenicity (random forest statistical model)” value (“Predicted teratogenicity” for short) in the data set on WA09 hESCs [1] was “Ter”. Moreover, in data set [2] (setting [6]), the “% Non (PLS-DA class probability non-teratogen)” value (from here on “% Non”) is 0.37, the “% Ter (PLS-DA class probability teratogen)” value (from here on “% Ter”) is reported as 0.63, the “Confidence (difference between class probabilities)” value was 0.26 and the Prediction result is “Ter”. In data set [2] (setting [7]), the “% Non” value was 0.5, the “% Ter” value is 0.5, the “Confidence (difference between class probabilities)” value is recorded as 0 and the Prediction entry is recorded as “Non”. Also, in the data set with WA09 hESCs [3], the “Abundance of succinic acid” value is reported as “significant down regulation”. In the data set on hESCs, the “Arg/ADMA Prediction” value is reported as “Ter” and the “Arg fold change/ADMA fold change” value is 1.12.
On to `O=P1(N(CCCl)CCCl)NCCCO1` (stereo not shown) [Cyclophosphamide], for which the “Predicted teratogenicity” value in the data set on WA09 hESCs [1] was “Ter”. For the same compound, in data set [2] (setting [6]), the “% Non” value is 0.45, the “% Ter” value is recorded as 0.55, the “Confidence (difference between class probabilities)” value is 0.1 and the Prediction result is “Ter”. In addition, in data set [2] (setting [7]), the “% Non” value was 0.41, the “% Ter” value is on record as 0.59, the “Confidence (difference between class probabilities)” value is 0.18 and the Prediction result is recorded as “Ter”. Besides, the “Abundance of succinic acid” value in the data set on WA09 hESCs [3] is “significant down regulation”. Besides, the “Arg fold change/ADMA fold change” value in the data set on hESCs amounted to 1.56. Besides, in the data set with hESCs (from fold change ratio), the “Arg/ADMA Prediction” value is given as “Ter”.
Regarding `Nc1ccn([C@@H]2O[C@H](CO)[C@@H](O)[C@@H]2O)c(=O)n1` [CytosineArabinoside], the Prediction entry in data set [4] was “Ter”.
Consider `CN(Cc1cnc2nc(N)nc(N)c2n1)c1ccc(C(=O)N[C@@H](CCC(=O)O)C(=O)O)cc1` [Methotrexate], for which, in data set [2] (setting [6]), the “% Non” value is on record as 0.42, the “% Ter” value is 0.58, the “Confidence (difference between class probabilities)” value was 0.16 and the Prediction entry is listed as “Ter”. Besides, in data set [2] (setting [7]), the “% Non” value is recorded as 0.48, the “% Ter” value is listed as 0.52, the “Confidence (difference between class probabilities)” value is listed as 0.04 and the Prediction result is “Ter”. For the same compound, the “Abundance of succinic acid” value in the data set on WA09 hESCs [3] was “significant down regulation”. Moreover, in the data set with hESCs, the “Arg/ADMA Prediction” value is reported as “Ter” and the “Arg fold change/ADMA fold change” value came out at 2.54.
For the compound `CC1=C(/C=C/C(C)=C/C=C/C(C)=C/CO)C(C)(C)CCC1` [Retinol], the “Predicted teratogenicity” value with WA09 hESCs [1] is “Non”. Also, in data set [5], the Actual teratogenicity result is reported as “Non”. Also, in data set [2] (setting [6]), the “% Non” value is 0.65, the “% Ter” value is 0.35, the “Confidence (difference between class probabilities)” value is 0.3 and the Prediction result is given as “Non”. Also, in data set [2] (setting [7]), the “% Non” value is 0.75, the “% Ter” value was 0.25, the “Confidence (difference between class probabilities)” value was 0.5 and the Prediction entry was “Non”. The “Arg fold change/ADMA fold change” value with hESCs worked out at 1.03.
Turning to `O=C1CCC(N2C(=O)c3ccccc3C2=O)C(=O)N1` (stereo not shown) [Thalidomide], in the data set with WA09 hESCs [1], the “Classification by the hSLC based assay” value is listed as “teratogen”. Further, the “Correct classification as a teratogen by the EST” value with mES cells is given as “does not”. In addition, in data set [2] (setting [6]), the “% Non” value is given as 0.3, the “% Ter” value is listed as 0.7, the “Confidence (difference between class probabilities)” value is given as 0.4 and the Prediction result is listed as “Ter”. In data set [2] (setting [7]), the “% Non” value was 0.65, the “% Ter” value is recorded as 0.35, the “Confidence (difference between class probabilities)” value is reported as 0.3 and the Prediction result was “Non”. Also, in the data set with hESCs, the “Arg/ADMA Prediction” value is recorded as “Ter” and the “Arg fold change/ADMA fold change” value is on record as 0.85.
`Cc1ncc(C[n+]2csc(CCO)c2C)c(N)n1` [Thiamine]: the “Predicted teratogenicity” value in the data set on WA09 hESCs [1] is recorded as “Non”. The Actual teratogenicity entry in data set [5] is “Non”. In data set [2] (setting [6]), the “% Non” value is on record as 0.78, the “% Ter” value is recorded as 0.22, the “Confidence (difference between class probabilities)” value is reported as 0.56 and the Prediction result is recorded as “Non”. Besides, in data set [2] (setting [7]), the “% Non” value is reported as 0.82, the “% Ter” value was 0.18, the “Confidence (difference between class probabilities)” value is given as 0.64 and the Prediction result was “Non”. In addition, the “Arg fold change/ADMA fold change” value in the data set on hESCs is recorded as 1.00.
